Test results as given in patent US20250326708A1, “LONG-ACTING SPLEEN-TARGETING CATIONIC LIPID COMPOUND COMPRISING BENZENE RING STRUCTURE, COMPOSITION COMPRISING SAME, AND USE THEREOF” (Beijing Youcarekechuang Pharmaceutical Technology Co., Ltd., priority 2024, published 2025).

Test system: female BALB/C mice
Assay: Expression of delivered mRNA in mice in vivo (IVIS in vivo imaging)
Conditions: for Expression level of mRNA in vivo, times that of YK-904: vs YK-904; for Average radiation intensity, in vivo imaging: 10 μg Fluc-mRNA via tail vein; for Expression level of mRNA in vivo, times that of SM-102: vs SM-102; for Expression level of mRNA in vivo, times that of YK-501: vs YK-501; for Expression level of mRNA in vivo, times that of YK-506: vs YK-506; for Expression level of mRNA in vivo, times that of compound 7: vs compound 7
In short: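 Female BALB/c mice (4–6 weeks, 17–19 g) received LNPs carrying 10 μg Fluc-mRNA via tail vein. At 6 h, 24 h, 48 h and 7 d, imaging substrate was given i.p. and, after 5 min, average radiance was measured by IVIS Spectrum imaging.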

CCCCCCCCCCCOC(=O)CCCN(CCCCCCC(=O)OCCC(CCCCCC)CCCCCC)CCNC(CO)(CO)CCc1ccc(CCCCCCCC)cc1 [YK-910, 3-hexylnonyl 7-((2-((1-hydroxy-2-(hydroxymethyl)-4-(4-octylphenyl)butan-2-yl)amino)ethyl) (4-oxo-4-(undecyloxy)butyl)amino) heptanoate]
Expression level of mRNA in vivo, times that of YK-904 (6 h): 12.03 times | Average radiation intensity, in vivo imaging (6 h): 13425454 | Expression level of mRNA in vivo, times that of SM-102 (24 h): 6.78 times | Expression level of mRNA in vivo, times that of YK-501 (24 h): 12.21 times | Expression level of mRNA in vivo, times that of YK-506 (24 h): 8.28 times | Expression level of mRNA in vivo, times that of YK-904 (24 h): 18.49 times | Expression level of mRNA in vivo, times that of compound 7 (24 h): 11.50 times | Average radiation intensity, in vivo imaging (24 h): 2133322 | Expression level of mRNA in vivo, times that of YK-904 (48 h): 23.07 times | Average radiation intensity, in vivo imaging (48 h): 658643 | Expression level of mRNA in vivo, times that of SM-102 (7 d): 9.24 times | Expression level of mRNA in vivo, times that of YK-501 (7 d): 15.15 times | Expression level of mRNA in vivo, times that of YK-506 (7 d): 2.49 times | Expression level of mRNA in vivo, times that of YK-904 (7 d): 26.32 times | Expression level of mRNA in vivo, times that of compound 7 (7 d): 10.03 times | Average radiation intensity, in vivo imaging (7 d): 85363
